Experimental data as given in paper PMC12119673, “Apoptotic cell death induced by copper (II), manganese (II) and silver (I) complexes containing bridging dicarboxylate and 1,10-phenanthroline ligands: one of the multi-modes of anticancer activity?” (Biometals, 2025).
Read-outs that look alike come from different tables or passages of the source.

What was measured:
Type in all cases: cell-based, human
MCF-12A cells = experiment: In vitro cytotoxicity assessment, alamar blue assay, 24-h exposure; details: for Decrease in activity towards MCF-12A cells relative to MCF-7 cells (selectivity): IC50 MCF-12A vs IC50 MCF-7, 24 h
Description: The MCF-7 (human breast cancer) and MCF-12A (non-tumourigenic human breast) cell lines were obtained from the Technological University Dublin (TUDublin, City Campus) internal cell bank and commercially from the American Type Culture Collection (ATCC), respectively. Both cell lines were cultured using Dulbecco’s Modified Eagle Medium/Nutrient Mixture F-12 Ham (DMEM-F12) (Sigma, Ireland) (Cat# D6421) media. The MCF-7 media was supplemented with 10% Foetal Bovine Serum (Sigma, Ireland) (Cat# F7524) and 1% L-Glutamine (Sigma, Ireland) (Cat# 592020C). The MCF-12A media was supplemented with 5% Equine Serum (Sigma, Ireland) (Cat# H0146) 1.25% L-Glutamine (Sigma, Ireland) (Cat# 592020C), 20 ng/ml Human Epidermal Growth Factor (Thermo Fisher Scientific, Ireland) (Cat# PHG0313), 0.01 mg/ml insulin (Thermo Fisher Scientific, Ireland)(Cat# 12585014) and 500 ng/ml hydrocortisone (Sigma, Ireland) (Cat# H0888). The cells were grown in T75 culture flasks (Sarstedt, Germany) (Cat# 83.3911.002) and were incubated in a 5% CO2 atmosphere at 37 ℃. The cells were monitored daily, and once 80–90% confluence was reached, they were subcultured with an enzymatic dissociation method using trypsin. Both cell lines were routinely subcultured for 1 week prior to beginning experimental work, to ensure the cells had adapted to the environment.
The MCF-7 and MCF-12A cells were seeded at a density of 1 × 10^4 in 96-well flat bottom plates (Sarstedt, Germany) (Cat# 83.3924) and incubated in a 5% CO2 atmosphere at 37 ℃ for 24 h prior to exposure to the complexes. Following the incubation period, the media was removed, and cells were washed with sterile phosphate-buffered saline (PBS). […] All agents were diluted in supplemented cell culture media, and the cells were exposed to a concentration range of 0.5 μM–100 μM for 24 h in the conditions outlined previously. Following the exposure period, the drug-containing media was removed, and cells were washed three times with PBS, ensuring complete removal of the test agents. A 5% working solution of Alamar Blue (Thermo Fisher Scientific, Ireland) (Cat# DAL1100) was prepared in dark conditions using unsupplemented cell culture media. 100 μl of the solution was added to each well, and the cells were incubated for 3 h. Following incubation, absorbance values were obtained using a Varioskan Lux (Thermo Scientific, USA) at 570 nm and 600 nm wavelengths. Each exposure was carried out in triplicate plates and was repeated three independent times.
The software packages Microsoft^Ⓡ Excel (USA) and GraphPad Prism (Ver. 10.0.3) (GraphPad, USA) were used to analyse the alamar blue data. The treated sample values were first normalised to the negative control values. After normalisation, the mean and standard deviations (SD) were established using Microsoft^Ⓡ Excel. The statistical analysis package GraphPad was then used to determine the IC25 and IC50 concentrations. […] A p value of 0.05 or lower is considered to be statistically significant.

[1] = tested on: apoptotic genes in MCF-12A cells; experiment: Apoptosis-related gene expression, qRT-PCR; details: IC25 concentration, 24 h, relative to negative control
Description: (§1) A broad scope of molecular targets involved in the apoptotic pathway were selected for analysis using qRT-PCR including initiators, mediators and inhibitors. These gene targets along with their cellular location and associated primer set are outlined in Table 2. Primer sets for each gene were designed using NCBI nucleotide sequences and the Primer3 application (Table 3). Once designed, the primers were synthesised by Sigma Aldrich, Ireland.
(§2) MCF-7 and MCF-12A cells were seeded at a density of 1 × 10^5 in T25 flasks and incubated for 24 h allowing for attachment. Following incubation, the seeding media was removed, and the cells were washed with PBS. […] Post-exposure, RNA was isolated from the cells. Tri-reagent^Ⓡ (Sigma, Ireland) (Cat# T9424) was added to the cells followed by centrifugation at 300 g for 5 min. The RNA was precipitated using chloroform, followed by centrifugation and washing of the pellet using 75% ethanol. The RNA was resuspended in 30 μl of nuclease-free water. The RNA was either used immediately for qRT-PCR or stored at −80 ℃. The RNA from each sample was quantified using the NanoDrop™ 2000 Spectrophotometer (Thermo Fisher Scientific, Ireland). The A260/A230 ratio was measured to ensure the purity of each sample. Prior to cDNA synthesis, all samples were adjusted to a concentration of 100 ng. The RNA was then reverse transcribed into cDNA using the Quanta Biosciences Kit (Quanta Biosciences, USA) (Cat# 95047). Using the SimpliAmp Thermal Cycler (Applied Biosystems; Thermo Fisher Scientific, Ireland), the following settings were applied: 5 min at 22 ℃, 30 min at 42 ℃, 5 min at 85 ℃; samples were then maintained in an indefinite hold at 4 ℃ prior to being used for quantitative real-time PCR. The cDNA templates were amplified and analysed using SYBR™ Green (Fisher Scientific, UK) (Cat#10187094). Using the 7500 fast Real-Time PCR System (Applied Biosystems, USA), the following thermal cycling setting were applied for amplification: Pre-Incubation (1 cycle) 95 ℃, 5 Minutes, 4.4 ℃ ramp; Amplification (45 cycles) 95 °C 10 s ramp 4.4 °C, 60 °C 10 s ramp 2.2 °C, 72 °C 10 s ramp 4.4 °C; Melting Curve (1 cycle) 95 °C 5 s ramp 4.4 °C, 65 °C 1 min ramp 2.2 °C, 97 °C continuous ramp 0.11 °C acquisition 10 per °C; Cooling (1 cycle) 40 °C 10 s ramp 1.5 °C. Two reference genes, actin and tubulin, were employed to determine the expression of the target genes. No template controls were included to confirm the absence of template contamination and auto-fluorescence. Each PCR plate contained three technical replicates per sample and gene target, with each experiment repeated three independent times using three individual biological replicates.
(§3) qRT-PCR data was analysed by first using the Vandesompele method to calculate the geometric mean of Ct values for the reference genes, actin and tubulin. These values were used for normalisation of the target gene expression values which were then calculated using the Livak and Schmittgen formula: 2^−ΔCt1(test)−ΔCt2(control) (Livak and Schmittgen [2001]; Vandesompele et al. [2002]).
(§4) The expression profiles (Fig. 4) display the log(2) transformed mean expression value for each gene target relative to the negative control. Expression values for each target were determined relative to the geometric means of reference genes. […] Each graph contains a threshold line, set at the value of one, this represents baseline expression levels of genes.

[2] = tested on: apoptotic genes in MCF-7 cells; experiment: Apoptosis-related gene expression, qRT-PCR; details: MCF-7, IC25 concentration, 24 h, relative to negative control
Description: as §1, §2, §3, §4

[3] = MCF-12A, 24-h exposure, 25% reduction in metabolic activity, mean ± SD (N = 3)
[4] = MCF-12A, 24-hour exposure, per one metal centre, mean ± S.D. (N=3)
[5] = MCF-12A, 24-hour exposure, per one metal centre, mean ± S.D. (N=3), read-out: IC50 calculated per one metal centre

Molecule | Cytotoxic activity IC25 ± SD (MCF-12A cells; [3]) | IC25 calculated per one metal centre (MCF-12A cells; [4]) | IC50 (MCF-12A cells; [5]) | Caspase gene expression (caspase-9, -8, -3) [1] | Pro-apoptotic gene expression (BID, BIM, BAD, BAX) [1] | Caspase gene expression (caspase-9, -8, -3) [2] | Pro-apoptotic gene expression (BID, BIM, BAD, BAX) [2] | Cytotoxic activity IC25 ± SD (MCF-12A cells) | IC50 (MCF-12A cells) | Decrease in activity towards MCF-12A cells relative to MCF-7 cells (selectivity) (MCF-12A cells; listed as 7) | Decrease in activity towards MCF-12A cells relative to MCF-7 cells (selectivity) (MCF-12A cells; listed as complex 7) | IC50 (MCF-12A cells; MCF-12A, 24-h exposure, 50% reduction in metabolic activity, mean ± SD (N = 3), read-out: Cytotoxic activity IC50 ± SD) | IC50 (MCF-12A cells; Homo sapiens, MCF-12A, 24 h, read-out: IC50 calculated per one metal centre)
O=C([O-])CCCCCCC(=O)[O-].[Cu+2].c1cnc2c(c1)ccc1cccnc12.c1cnc2c(c1)ccc1cccnc12 [Complex 2, [Cu(oda)(phen)2]] | 0.68 ± 0.13 µM | 0.68 ± 0.13 µM | 1.65 ± 0.13 µM | expressed caspase 8 | upregulated expression of the gene encoding BH3-only protein BID | expressing initiator caspase 9 | upregulated expression of the gene encoding BH3-only protein BID | – | – | – | – | – | –
O=C([O-])CCCCCCC(=O)[O-].[Cu+2].[Cu+2].[O-][Cl+3]([O-])([O-])[O-].[O-][Cl+3]([O-])([O-])[O-].c1cnc2c(c1)ccc1cccnc12.c1cnc2c(c1)ccc1cccnc12.c1cnc2c(c1)ccc1cccnc12.c1cnc2c(c1)ccc1cccnc12 [Complex 1, [Cu2(oda)(phen)4](ClO4)2] | – | 9.72 ± 3.82 µM | 12.3 ± 0.74 µM | expressed caspase 8 | upregulated expression of the gene encoding BH3-only protein BID | expressing initiator caspase 9 | upregulated expression of the gene encoding BH3-only protein BID | 4.86 ± 1.91 µM | 6.14 ± 0.37 µM | – | – | – | –
{[Mn2(oda)3(phen)4]^2−[Mn2(oda)(phen)4 (H2O)2]^2+} [Complex 7] | 0.38 ± 0.39 µM | 1.52 ± 1.56 µM | 104 ± 30.8 µM | Initiator caspase 9 was expressed by MCF-12A cells, but executioner caspase-3 was not found to be expressed | only shown to express BIM | No caspase activity was observed | expression of both BID and BIM | – | – | almost tenfold reduction in cytotoxicity | almost tenfold decrease in activity | 26.1 ± 7.7 µM | –
O=C([O-])CCCCCCCCCC(=O)[O-].[Ag+].[Ag+].c1cnc2c(c1)ccc1cccnc12.c1cnc2c(c1)ccc1cccnc12.c1cnc2c(c1)ccc1cccnc12 [Complex 5, [Ag2(udda)(phen)3]] | 5.52 ± 0.51 µM | 11.04 ± 1.0 µM | – | expression of caspase-9 and caspase-3 | significantly elevated BIM and BAD expression | expression of caspase-9 and caspase-3 | – | – | – | – | – | – | –
O=C([O-])CCCCCCC(=O)[O-].[Ag+].[Ag+].c1cnc2c(c1)ccc1cccnc12.c1cnc2c(c1)ccc1cccnc12.c1cnc2c(c1)ccc1cccnc12 [Complex 4, [Ag2(oda)(phen)3]] | 4.91 ± 0.14 µM | 9.82 ± 0.28 µM | – | expression of caspase-9 and caspase-3 | significantly elevated BIM and BAD expression | expression of caspase-9 and caspase-3 | – | – | – | – | – | – | –
c1cnc2c(c1)ccc1cccnc12 [Phen, 1,10-Phenanthroline] | 11.14 ± 4.39 µM | 11.14 ± 4.39 µM | – | all caspases seen to be activated | pro-apoptotic BIM and BAD were upregulated | all caspases seen to be activated | pro-apoptotic BIM and BAD were upregulated | – | – | – | – | – | 20.9 ± 1.96 µM
